In assay [1] the test system is murine L1210 leukaemia cells. The assay is described as follows: L1210 in vitro, growth of cultured murine leukaemia cells. The assay is classed as cell-based. As to conditions: Mus musculus, concentration that reduces counted number of leukaemia cells by 50% over 70 hours, read-out: ID50 (the source's name). The text has this: L1210 in vitro--The culture methods used are described in detail elsewhere (B. C. Baguley and R. Nash, Europ.J.Cancer, 17, 671-679 (1981). Acceptable reproducibility of data depends critically upon the maintenance of optimal culture conditions. L1210 cells were initially obtained from Dr. I. Wodinsky, Arthur D. Little Inc., Boston, U.S.A., under the auspices of the National Cancer Institute.
ID50 --the nanomolar concentration of drug which when added to cultures of murine L1210 leukaemia cells over a period of 70 hours, reduces the resultant counted number of leukaemia cells by 50% (B. C. Baguley and R. Nash, Europ.J.Cancer 17, 671-679 (1981).

Assay [2] has as its system P388 leukaemia. Briefly: P388 in vivo, life span of mice bearing intraperitoneal P388 leukaemia. Further details: species or system mice (F1 hybrid, DBA-2 male×C57 B1 female). To be noted: for ILS (percentage increase in life span): at optimal dose, days 1, 5 and 9, controls survive 11 days on average, >20% statistically significant; for OD (O.D., optimal drug dose): solution in 0.1 ml of 30% v/v ethyl alcohol in water on days 1, 5 and 9, soluble acid addition salt. An excerpt: These have been shown by studies at the National Cancer Institute, U.S.A. to be useful for detecting agents with antitumor activity against clinical cancer (A. Goldin, J. M. Venditti, J. S. MacDonald, F. M. Mugia, J. E. Henney and V. T. De Vita, Europ.J. Cancer 17, 129-142, (1981). The abbreviations given in Table II are:
P388 in vivo--Tumour P388 cells were obtained as frozen stocks from Mason Research Inc., U.S.A. and passaged intraperitoneally according to standard methods (Cancer Chemother. Rep. 3, Part 3, page 9, 1972) in DBA-2 mice of either sex. Groups of six F1 hybrid mice (DBA-2 male×C57 B1 female, g weight 20±1 g) were injected intraperitoneally with 10^6 cells on day 0.
O.D.--optimal drug dose, in milligrams per kilogram, administered as a solution in 0.1 ml of 30% v/v ethyl alcohol in water on days 1, 5 and 9 after tumour inoculation. The drug is administered as a soluble acid addition salt.
ILS--percentage increase in life span of treated animals over that of groups of control animals injected with tumour alone. The average survival of control mice was 11 days. Values of ILS greater than 20% are considered statistically significant.

Assay [3] deals with tumour. As to conditions: earlier work, literature; cited from earlier work.

As to `COC(=O)Nc1ccc(Nc2c3ccccc3nc3c2ccc2cccnc23)c(OC)c1` [Compound 3], in assay [1], the IC50 was 46 nM. In assay [2], the Active entry is recorded as “Yes”; the “ILS (percentage increase in life span)” value is on record as 95%; the “OD (O.D., optimal drug dose)” value was 45 milligrams per kilogram.

In the case of `CS(=O)(=O)Nc1ccc(Nc2c3ccccc3nc3ccccc23)cc1` [AMSA, 4'-(9-acridinylamino) methanesulphonanilide], the antitumour effect result in assay [3] is given as “marked antitumour effect”.

`COC(=O)Nc1ccc(Nc2c3ccccc3nc3c2ccc2cccnc23)cc1` [Compound 4]: the IC50 in assay [1] is 18 nM. In assay [2], the Active result is “Yes”; the “ILS (percentage increase in life span)” value amounted to 64%; the “OD (O.D., optimal drug dose)” value worked out at 30 milligrams per kilogram.

For the compound `CS(=O)(=O)Nc1ccc(Nc2c3ccccc3nc3c2ccc2cccnc23)cc1` [Compound 2], the IC50 in assay [1] was 58 nM. In addition, in assay [2], the Active entry was “Yes”; the “ILS (percentage increase in life span)” value came to 30%; the “OD (O.D., optimal drug dose)” value is given as 150 milligrams per kilogram.

Consider `COP(=O)(Nc1ccc(Nc2c3ccccc3nc3c2ccc2cccnc23)cc1)OC` [Compound 5], for which the IC50 in assay [1] turned out to be 31 nM. Moreover, in assay [2], the Active result was “Yes”; the “ILS (percentage increase in life span)” value was 64%; the “OD (O.D., optimal drug dose)” value was 45 milligrams per kilogram.

On to `COc1cc(NS(C)(=O)=O)ccc1Nc1c2ccccc2nc2c1ccc1cccnc12` [Compound 1], for which the IC50 in assay [1] came out at 26 nM. In addition, in assay [2], the Active entry is listed as “Yes”; the “ILS (percentage increase in life span)” value was 109%; the “OD (O.D., optimal drug dose)” value was found to be 13.3 milligrams per kilogram.

Source of the values: patent publication US4474961A, “1,10[8,9-Benz]phenanthroline” (Development Finance Corporation of New Zealand, priority 1982, dated 1984).
